System: Guinea pigs
Assay: Electrostimulation test (antiarrhythmic effect; voltage needed to induce extrasystoles/arrhythmias by electrostimulation of the right ventricle)
Type: in vivo
Details: anaesthetized Guinea pigs (Urethane 1.2 g/kg i.p.), substances given intraduodenally 30 min before stimulation; 6 treated vs 6 control animals; * = statistically significant p<0.05; dose not given
Method: According to the method described by […]. and PAPP, G J., (Naunyn-Schmiedebergs Arch. exp. Path. Pharmak. 245, 70 (1963), arrhythmias are induced in Guinea pigs by electostimulation of the right ventricle of the heart. The animals are anaesthetized with Urethane (1.2 g/kg i.p.) and artificially respired before a needle electrode is inserted in the right ventricle of the heart. Substances are given intraduodenally 30 min before the stimulation. The voltage needed for induction of extrasystoles in 6 control animals (n=6) is compared with that required for induction of arrhythmias in 6 treated animals (n=6). The difference is statistically evaluated by the unpaired t-test (STUDENT). This method was used to evaluate the compounds of the present invention. In Tables 1 and 2, ^* means statistically significant p<0.05.

Structure (SMILES): Cc1cc(C)c(S(=O)(=O)NC(C)CCCN2CCCCC2C)c(C)c1 (stereo not shown) [(1)]
- % Increase in Test Voltage: 89.4* %

Structure (SMILES): Cc1cc(C)c(S(=O)(=O)NCC(O)CN2CCCC2)c(C)c1 (stereo not shown) [(5)]
- % Increase in Test Voltage: 29.5* %

Structure (SMILES): Cc1cc(C)c(S(=O)(=O)NCC(O)CN2CCCCC2C)c(C)c1 (stereo not shown) [(7)]
- % Increase in Test Voltage: 13.4* %

Structure (SMILES): Cc1cc(C)c(S(=O)(=O)NCC(O)CN2CC(C)CC2C)c(C)c1 (stereo not shown) [(6)]
- % Increase in Test Voltage: 12.1* %

Structure (SMILES): CC1CCCCN1CC(O)CNS(=O)(=O)c1cc(Cl)c(Cl)cc1Cl (stereo not shown) [(4)]
- % Increase in Test Voltage: 60.6* %

Structure (SMILES): Cc1cc(C)c(S(=O)(=O)NC(C)CCCN2CC(C)CC2C)c(C)c1 (stereo not shown) [(3)]
- % Increase in Test Voltage: 87.7* %

Structure (SMILES): CC(CN1CCCCC1)NS(=O)(=O)c1cc(Cl)c(Cl)cc1Cl.Cl (stereo not shown) [(2), 1-[2-(2,4,5-trichlorobenzenesulphonamido)-propyl] piperidinium chloride]
- % Increase in Test Voltage: 29.6* %

Reference: patent EP0107350A1, “Sulfon amides” (Beecham Wuelfing GmbH & Co KG, priority 1982, dated 1984)
